From ChEMBL document CHEMBL1201862, “PubChem BioAssay data set” (2004)
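How tested: cells in 96-well plates exposed to compound for 48 hours at five concentrations. GI50 = concentration required for 50% inhibition of growth.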 The source made the active and inactive calls. Rule as the data show it: active = GI50 up to about 1.1 µM and inactive = higher.

Assays:
Assay in all cases: NCI anticancer screen, dose series, 48 h
HT-29 = system: HT-29
HL-60 = system: HL-60
COLO 205 = system: COLO 205
OVCAR-8 = system: OVCAR-8
SK-MEL-5 = system: SK-MEL-5
SR = system: SR
SK-OV-3 = system: SK-OV-3
KM12 = system: KM12
SF-295 = system: SF-295
A549 = system: A549
K562 = system: K562
RPMI-8226 = system: RPMI-8226
Malme-3M = system: Malme-3M
CAKI-1 = system: CAKI-1
LOX IMVI = system: LOX IMVI
UO-31 = system: UO-31
HOP-92 = system: HOP-92
MCF7 = system: MCF7
DU-145 = system: DU-145

Measured: GI50

O=C(/C=C/c1ccccc1O)c1cccc2ccccc12
inactive: HT-29 > 66.5 µM | HL-60 27.9 µM | COLO 205 > 44.8 µM | OVCAR-8 > 71 µM | SK-MEL-5 > 100 µM | SR 31.3 µM | SK-OV-3 > 100 µM | KM12 40.3 µM | SF-295 > 100 µM | A549 > 80.2 µM | K562 32 µM | RPMI-8226 20.3 µM | Malme-3M > 100 µM | CAKI-1 > 92.9 µM | LOX IMVI > 53.5 µM | UO-31 > 47.4 µM | HOP-92 > 52.2 µM

Cc1ccccc1NC(=O)C1C(=O)N(c2ccccc2C)C(=O)/C1=N\N (centres undefined)
inactive: HT-29 > 100 µM | HL-60 > 100 µM | COLO 205 > 100 µM | OVCAR-8 > 100 µM | SK-MEL-5 > 100 µM | SR > 100 µM | SK-OV-3 > 100 µM | KM12 > 100 µM | SF-295 > 100 µM | A549 > 100 µM | K562 > 100 µM | RPMI-8226 > 100 µM | Malme-3M > 100 µM | CAKI-1 > 100 µM | LOX IMVI > 100 µM | UO-31 > 100 µM | HOP-92 > 100 µM

CC1=C(C(=O)Nc2ccccc2C)C(c2ccc(C3C(C(=O)Nc4ccccc4C)=CNC=C3C(=O)Nc3ccccc3C)cc2)C(C(=O)Nc2ccccc2C)=C(C)N1
inactive: HT-29 14.4 µM | HL-60 8 µM | COLO 205 21 µM | OVCAR-8 25.6 µM | SK-MEL-5 12.9 µM | SR 3.22 µM | SK-OV-3 27.3 µM | KM12 14.1 µM | SF-295 19.3 µM | A549 40.6 µM | K562 9.27 µM | RPMI-8226 15.8 µM | Malme-3M 19.1 µM | CAKI-1 21.3 µM | LOX IMVI 7.08 µM | UO-31 18.7 µM | HOP-92 22.4 µM

CCCCOc1c(C(=O)O)cc(Br)cc1C(=O)O
inactive: COLO 205 > 100 µM | OVCAR-8 > 100 µM | SK-MEL-5 > 100 µM | SK-OV-3 > 100 µM | KM12 > 100 µM | SF-295 > 100 µM | A549 > 100 µM | K562 > 100 µM | RPMI-8226 > 100 µM | Malme-3M > 100 µM | CAKI-1 > 100 µM | MCF7 > 100 µM | LOX IMVI > 100 µM | UO-31 > 100 µM | HOP-92 > 100 µM

CCOC(=O)N1C(=S)C(C(=O)OC)(C(=O)OC)N=C1C
inactive: HL-60 > 100 µM | COLO 205 > 100 µM | OVCAR-8 > 100 µM | SK-MEL-5 > 100 µM | SR > 100 µM | SK-OV-3 > 100 µM | KM12 > 100 µM | SF-295 > 100 µM | A549 > 100 µM | K562 > 100 µM | RPMI-8226 > 100 µM | CAKI-1 > 100 µM | MCF7 > 100 µM | LOX IMVI > 100 µM | UO-31 > 100 µM | HOP-92 > 100 µM | DU-145 > 100 µM

O=C1OC2(c3ccccc3Oc3ccccc32)c2ccccc21
inactive: HT-29 > 100 µM | HL-60 99.8 µM | COLO 205 > 100 µM | OVCAR-8 > 100 µM | SK-MEL-5 > 100 µM | SR > 100 µM | SK-OV-3 > 100 µM | KM12 > 100 µM | SF-295 > 100 µM | A549 > 100 µM | K562 50.8 µM | RPMI-8226 > 100 µM | Malme-3M > 100 µM | CAKI-1 > 100 µM | LOX IMVI > 100 µM | UO-31 > 100 µM | HOP-92 > 100 µM

Cc1cccc(C(C)(C)C)c1NC(=O)C(=O)C(c1cnc2ccccc2n1)[N+](=O)[O-] (centres undefined)
inactive: HT-29 > 100 µM | HL-60 65.3 µM | COLO 205 > 100 µM | OVCAR-8 > 100 µM | SK-MEL-5 > 100 µM | SR > 100 µM | SK-OV-3 > 100 µM | KM12 > 100 µM | SF-295 > 100 µM | A549 > 100 µM | K562 > 100 µM | RPMI-8226 60.3 µM | Malme-3M > 100 µM | CAKI-1 > 100 µM | LOX IMVI > 100 µM | UO-31 > 100 µM | HOP-92 > 100 µM

Cc1ccc(SCC(=O)C2=C(O)CCCC2=O)cc1
inactive: HT-29 > 100 µM | HL-60 > 100 µM | COLO 205 > 100 µM | OVCAR-8 > 100 µM | SK-MEL-5 > 100 µM | SR > 100 µM | SK-OV-3 > 100 µM | KM12 > 100 µM | SF-295 > 100 µM | A549 > 100 µM | K562 > 100 µM | RPMI-8226 > 100 µM | Malme-3M > 100 µM | CAKI-1 > 100 µM | LOX IMVI > 100 µM | UO-31 > 100 µM | HOP-92 > 100 µM
